The text below walks through data of patent US12090164B2, “Genotype-agnostic rescue of cystic fibrosis with small molecule bicarbonate channels” (The Board of Trustees of the University of Illinois, priority 2017, dated 2024).

Molecules are shown by their SMILES. “Also recorded” adds a separate entry of the source.

For data set [1], the system named is CuFi-1 epithelia. In words: Lactate dehydrogenase (LDH) cytotoxicity assay. It is filed as cell-based, human. Conditions: single AmB treatment, increasing time periods. The method, then:
Small diameter CuFi-1 cultured epithelia were used for this experiment (0.33 cm^2). An LDH Cytotoxicity Assay Kit (Cayman Chemical) was used to determine if AmB is toxic to CuFi-1 airway epithelia. Prior to treatment, media was removed from the basolateral side of epithelia and replaced with 500 µL of fresh USG media. Cultured epithelia were then treated with FC-72 vehicle, 2 and 50 μM AmB administered in perfluorocarbon (FC-72, Sigma) for 48 hours, 7 days, or 28 days. 48 hours prior to the end of each experiment time frame, basolateral media was changed again and […] of 10% Triton X-100 solution was added to the apical surface to elicit maximum release. On the day of the experiment, assay reagents were prepared according to kit instructions and 500 µL of USG media was added to three empty wells in a 24-well plate for background control. Culture inserts were removed from the wells and 250 µL of LDH Reaction Solution was added to each well. The plate was then gently shaken on an orbital shaker for 30 minutes at 37° C. Absorbance was read at 490 nm using a plate reader. % cytotoxicity was calculated as follows: […]

The test system of data set [2] is NuLi (CFTR^+/+) epithelia. In words: ASL pH in non-CF cultured airway epithelia. The following applies: apical AmB 2 μM, 48 h. It is filed as cell-based, human. The method, then:
Small diameter NuLi, CuFi, and primary cultured epithelia were used for this experiment (0.33 cm^2). The ratiometric pH indicator SNARF-conjugated dextran (Molecular Probes) was used to measure ASL pH. SNARF powder was suspended via sonication in perfluorocarbon (FC-72, Sigma) and distributed onto the apical surface. ASL pH was measured 2 hr later (3, 4, 25). SNARF was excited at 488 nm and emission was recorded at 580 nm and 640 nm using a Zeiss LSM 800 microscope at 40× water immersion for cell line cultures and a Zeiss LSM 510 microscope for primary cultures. To generate a standard curve for pH determination, SNARF was dissolved in colorless pH standards and fluorescence ratios were converted to pH.
Agents tested in this assay were first lyophilized into powder and then suspended in the appropriate volume of perfluorocarbon (FC-72, Sigma) and sonicated for 1 minute to suspend. AmBisome should not be sonicated; instead, the fine powder was suspended by vortexing.
In all experiments, ASL pH of compound-treated epithelia was measured compared the results to vehicle-treated epithelia.
For apical AmB administration, cultured airway epithelia were incubated for 30 min-48 hrs at 37° C. before measurement of ASL pH. For AmB-cholesterol complex and C35deOAmB administration, cultured airway epithelia were incubated for 48 hrs at 37° C. before measurement of ASL pH. […]

The subject of data set [3] is CuFi-1 (ΔF508/ΔF508) epithelia. Kind of data set: ASL cation concentrations by ICP-MS. It is filed as cell-based, human. The following applies: AmB 2 μM, 48 h, vs FC-72 vehicle. The protocol: Small diameter CuFi-1 cultured epithelia were used for this experiment (0.33 cm^2). 24 hours prior to the start of experiment, the apical side of all cultured epithelia was rinsed three times with 200 μL warm PBS to remove excess mucus. Fresh USG media was added to the basolateral membrane. CuFi-1 epithelia were treated with either perfluorocarbon (FC-72) vehicle or 2 μM AmB suspended in FC-72, and incubated at 37° C. for 48 hours. 0.1 μL capacity microcapillary tubes (Drummond Scientific NC1453214) were placed into 200 μL pipette tips (Denville Scientific P1122). 48 hours after AmB addition, the microcapillary tubes were gently touched around the edge of the apical membrane of each epithelial culture insert until completely filled with ASL via capillary action. […] The sample was then quantitatively transferred to a 15 mL capacity conical vial by washing 3 times with 50 μL molecular biology grade water.
Quantification of sodium, magnesium, potassium, and calcium was accomplished using inductively coupled plasma mass spectrometry (ICP-MS) of acidified samples. […] Quantitative standards were made using a mixed Na, Mg, K, and Ca standard at 100 μg/mL of each element (Inorganic Ventures, Christiansburg, VA, USA) which were combined to create a 100 ng/mL mixed element standard in 1.0% nitric acid (v/v). […]

The conditions of data set [4]: in vivo; cited from earlier work.
In data set [5] the test system is protein ion channel-deficient yeast. The following applies: cited from earlier work.
Data set [6] deals with CuFi-1 epithelia. Kind of data set: Transepithelial electrical resistance (Rt). The format is cell-based, human. The following applies: vehicle, 2 uM or 50 uM AmB, extended timeframes. The method, then:
Small diameter CuFi-1 cultured epithelia were used for this experiment (0.33 cm^2) Cultured epithelia were treated with FC-72 vehicle, 2 and 50 μM AmB administered in perfluorocarbon (FC-72, Sigma) for 48 hours, 7 days, or 28 days. 200 μL of fresh USG media was placed on the apical side of the epithelia. Transepithelial electrical resistance (Rt) was then measured using a Millicell® ERS-2 Voltohmmeter across the apical and basolateral sides of the epithelia in a snaking pattern for two technical replicates per biological replicate.

For data set [7] the following is noted: aerosolized / nebulized; cited from earlier work.

In the case of `C[C@@H]1[C@H](O)[C@@H](C)/C=C/C=C/C=C/C=C/C=C/C=C/C=C/[C@H](O[C@@H]2O[C@H](C)[C@@H](O)[C@H](N)[C@@H]2O)C[C@@H]2O[C@](O)(C[C@@H](O)C[C@@H](O)[C@H](O)CC[C@@H](O)C[C@@H](O)CC(=O)O[C@H]1C)C[C@H](O)[C@H]2C(=O)O` [AmB, amphotericin B], the “cytotoxicity (LDH release, percent of total lysis by Triton X)” value in the data set with CuFi-1 epithelia [1] is on record as “did not cause increased cytotoxicity as compared to vehicle”. In addition, in data set [2], the “ASL pH in non-CF epithelia” value is reported as “No increase in ASL pH was observed”. Further, the ASL cation concentrations entry in data set [3] is recorded as “unchanged as compared to vehicle-treated controls; also recorded: do not alter major cation concentrations in the ASL”. The toxicity to humans entry in data set [4] is “significant toxicity to humans”. The “range of doses for which yeast growth rescue is observed” value in data set [5] (AmB pre-complexed with ergosterol) is reported as “extended by more than an order of magnitude”. The yeast growth rescue result in data set [5] is “can restore growth in protein ion channel-deficient yeast; also recorded: restores potassium transport and thus growth in yeast missing the potassium-selective Trk transporters”. The “membrane integrity / transepithelial electrical resistance (Rt)” value in the data set on CuFi-1 epithelia [6] is on record as “did not disrupt membrane integrity; also recorded: no difference in transepithelial electrical resistance; also recorded: did not differ between treatment with vehicle or increasing doses of AmB”. For the same molecule, the “safety of delivery to the lungs” value in data set [7] was “safely delivered to the lungs in aerosolized form”.
